Calls of active or inactive are those of the source. The rule behind the calls is not given here.
Tests used:
[1] = species on record: Homo sapiens; assay: Compound was evaluated for the inhibition of aggregation induced by 0.1 U/mL thrombin at 10 uM concentration and determined at 2 min; NA = Not active; format: functional, organism-based
[2] = target: T1, Proteinase-activated receptor 1 (Homo sapiens) (UniProt P25116); assay: Compound was evaluated for inhibitory activity against binding to Thrombin receptor 1 (PAR-1) at 1 uM concentration
T1 sequence (whole entry): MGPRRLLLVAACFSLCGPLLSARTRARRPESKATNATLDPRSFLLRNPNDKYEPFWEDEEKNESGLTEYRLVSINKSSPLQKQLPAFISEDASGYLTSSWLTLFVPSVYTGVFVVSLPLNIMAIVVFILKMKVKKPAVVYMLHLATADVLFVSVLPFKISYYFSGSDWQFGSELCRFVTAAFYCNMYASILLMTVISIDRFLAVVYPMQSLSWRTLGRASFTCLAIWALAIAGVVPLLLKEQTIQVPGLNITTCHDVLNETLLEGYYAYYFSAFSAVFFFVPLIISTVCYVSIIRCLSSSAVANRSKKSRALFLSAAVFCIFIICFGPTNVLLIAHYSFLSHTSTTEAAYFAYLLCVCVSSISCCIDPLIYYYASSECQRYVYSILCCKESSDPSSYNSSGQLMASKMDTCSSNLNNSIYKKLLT

[3] = target: T2, Proteinase-activated receptor 1 (Homo sapiens, UniProt P25116); assay: Inhibitory activity against binding to Thrombin receptor 1 (PAR-1)
T2 sequence (P25116 whole entry): T1 sequence (whole entry)

[4] = species on record: Homo sapiens; assay: Compound was evaluated for the inhibition of aggregation induced by 300 nM ha-TRAP(high affinity thrombin receptor agonist peptide); format: functional, organism-based
[5] = species on record: Homo sapiens; assay: Compound was evaluated for the inhibition of aggregation induced by 0.1 U/mL thrombin and determined at 2 min.; format: functional, organism-based
[6] = species on record: Homo sapiens; assay: Compound was evaluated for the inhibition of aggregation induced by 300 nM ha-TRAP(high affinity thrombin receptor agonist peptide) at 10 uM concentration; NA = Not active; format: functional, organism-based
[7] = species on record: Homo sapiens; assay: Compound was evaluated for the inhibition of platelet aggregation induced by 0.1 U/mL thrombin at concentration. of 10 uM; NA = Not active; format: functional, organism-based
[8] = species on record: Homo sapiens; assay: Compound was evaluated for the inhibition of aggregation induced by 300 nM ha-TRAP(high affinity thrombin receptor agonist peptide) at 10 uM concentration; format: functional

| IC50 [3] [nM] | IC50 [4] [nM] | SMILES | inhibition [1] | also measured |
| --- | --- | --- | --- | --- |
|  |  | CC(C)c1ccc(Cn2ccc3c4c(N)nc(N5CCc6ccccc6C5)nc4ccc32)cc1 | inactive | inhibition [2]: inactive |
| 100 | 600 | CC(C)c1ccc(Cn2ccc3c4c(N)nc(N5CCCCC5)nc4ccc32)cc1 | inactive |  |
| 870 | 600 | CNc1nc(N)c2c(ccc3c2ccn3Cc2ccc(C(C)C)cc2)n1 | inactive |  |
| 52 | 150 | CC(C)c1ccc(Cn2ccc3c4c(N)nc(N(C)C5CC5)nc4ccc32)cc1 |  | IC50 [5]: 700 nM |
| 1750 |  | Cc1ccc2cc(Cn3ccc4c5c(N)nc(N)nc5ccc43)ccc2c1 |  |  |
| 4900 |  | CC(C)c1ccc(Cn2ccc3c4c(N)nc(NCCO)nc4ccc32)cc1 | inactive | inhibition [6]: inactive |
| 300 | 3000 | CC(C)c1ccc(Cn2ccc3c4c(N)nc(N)nc4ccc32)cc1 |  | inhibition [7]: inactive |
| 4500 |  | CCc1ccc(Cn2ccc3c4c(N)nc(N)nc4ccc32)cc1 |  |  |
|  |  | CC(C)c1ccc(Cn2ccc3c4c(N)nc(N5CCNCC5)nc4ccc32)cc1 | inactive | inhibition [6]: inactive; inhibition [2]: 17% |
| 100 | 2000 | CC(C)c1ccc(Cn2ccc3c4c(N)nc(N(C)C)nc4ccc32)cc1 | inactive |  |
| 56 | 300 | CC(C)c1ccc(Cn2ccc3c4c(N)nc(NC5CC5)nc4ccc32)cc1 |  | IC50 [5]: 3000 nM |
| 2630 |  | CCOc1ccc(Cn2ccc3c4c(N)nc(N)nc4ccc32)cc1 |  |  |
| 3200 |  | CNc1nc(N(C)C)nc2ccc3c(ccn3Cc3ccc(C(C)C)cc3)c12 | inactive |  |
| 6880 |  | CSc1ccc(Cn2ccc3c4c(N)nc(N)nc4ccc32)cc1 |  |  |
| 1230 |  | CC(C)(C)c1ccc(Cn2ccc3c4c(N)nc(N)nc4ccc32)cc1 |  |  |
| 9600 |  | C=Cc1ccc(Cn2ccc3c4c(N)nc(N)nc4ccc32)cc1 |  |  |
| 524 | 600 | CCNc1nc(N)c2c(ccc3c2ccn3Cc2ccc(C(C)C)cc2)n1 | inactive |  |
| 1250 |  | CC(C)c1ccc(Cn2ccc3c4c(N(C)C)nc(N(C)C)nc4ccc32)cc1 | inactive | Inhibition [8]: 40% |
